{"source": "BindingDB's records for doi:10.1021/jm800889m", "about": "(University of Wisconsin At Madison, 2008)", "test_in_all_cases": "Radioligand Binding Assay", "key": {"[1]": {"target": "T1, Gamma-aminobutyric acid receptor subunit alpha-4 [36-554]/beta-2 [26-512]/gamma-2 [40-467] (Homo sapiens, UniProt P18507+P47870+P48169)", "T1 construct": "36-554; 26-512; 40-467", "details": "pH 7.4; 22 °C"}, "[2]": {"target": "T2, Gamma-aminobutyric acid receptor subunit alpha-5 [32-462]/beta-2 [26-512]/gamma-2 [40-467] (Homo sapiens, UniProt P18507+P31644+P47870)", "T2 construct": "32-462; 26-512; 40-467", "details": "pH 7.4; 22 °C"}, "[3]": {"target": "T3, Gamma-aminobutyric acid receptor subunit alpha-1 [28-456]/beta-2 [26-512]/gamma-2 [40-467,T120C] (Homo sapiens, UniProt P14867+P18507+P47870, T120C)", "T3 construct": "28-456; 26-512; 40-467", "details": "25 °C"}, "[4]": {"target": "T4, Gamma-aminobutyric acid receptor subunit alpha-1 [28-456]/beta-2 [26-512]/gamma-2 [40-467,L179C] (Homo sapiens, UniProt P14867+P18507+P47870, L179C)", "T4 construct": "28-456; 26-512; 40-467", "details": "25 °C"}, "[5]": {"target": "T5, Gamma-aminobutyric acid receptor subunit alpha-1 [T206C]/beta-2 [26-512]/gamma-2 [40-467] (Homo sapiens, UniProt P14867+P18507+P47870, T206C)", "T5 construct": "26-512; 40-467", "details": "25 °C"}, "[6]": {"target": "T6, Gamma-aminobutyric acid receptor subunit alpha-1 [28-456]/beta-2 [26-512]/gamma-2 [40-200],P14867[176-456] (Homo sapiens, UniProt P14867+P18507+P47870)", "T6 construct": "28-456; 26-512; 40-200; 176-456", "details": "25 °C"}, "[7]": {"target": "T7, Gamma-aminobutyric acid receptor subunit alpha-6 [20-453]/beta-2 [26-512]/gamma-2 [40-467] (Homo sapiens, UniProt P18507+P47870+Q16445)", "T7 construct": "20-453; 26-512; 40-467", "details": "pH 7.4; 22 °C"}, "[8]": {"target": "T8, Gamma-aminobutyric acid receptor subunit alpha-1 [28-456]/beta-2 [26-512]/gamma-2 [40-467,M169C] (Homo sapiens, UniProt P14867+P18507+P47870, M169C)", "T8 construct": "28-456; 26-512; 40-467", "details": "25 °C"}, "[9]": {"target": "T9, Gamma-aminobutyric acid receptor subunit alpha-1 [A160C]/beta-2 [26-512]/gamma-2 [40-467] (Homo sapiens, UniProt P14867+P18507+P47870, A160C)", "T9 construct": "26-512; 40-467", "details": "25 °C"}, "[10]": {"target": "T10, Gamma-aminobutyric acid receptor subunit alpha-1 [28-456]/beta-2 [26-512]/gamma-2 [40-467,R171C] (Homo sapiens, UniProt P14867+P18507+P47870, R171C)", "T10 construct": "28-456; 26-512; 40-467", "details": "25 °C"}, "[11]": {"target": "T11, Gamma-aminobutyric acid receptor subunit alpha-1 [V202C]/beta-2 [26-512]/gamma-2 [40-467] (Homo sapiens, UniProt P14867+P18507+P47870, V202C)", "T11 construct": "26-512; 40-467", "details": "25 °C"}, "[12]": {"target": "T12, Gamma-aminobutyric acid receptor subunit alpha-1 [28-456]/beta-2 [26-512]/gamma-2 [40-467,A118C] (Homo sapiens, UniProt P14867+P18507+P47870, A118C)", "T12 construct": "28-456; 26-512; 40-467", "details": "25 °C"}, "[13]": {"target": "T13, Gamma-aminobutyric acid receptor subunit alpha-1 [28-456]/beta-2 [26-512]/gamma-2 [40-467,T181C] (Homo sapiens, UniProt P14867+P18507+P47870, T181C)", "T13 construct": "28-456; 26-512; 40-467", "details": "25 °C"}, "[14]": {"target": "T14, Gamma-aminobutyric acid receptor subunit alpha-1 [28-456]/beta-2 [26-512]/gamma-2 [40-467,D95C] (Homo sapiens, UniProt P14867+P18507+P47870, D95C)", "T14 construct": "28-456; 26-512; 40-467", "details": "25 °C"}, "[15]": {"target": "T15, Gamma-aminobutyric acid receptor subunit alpha-1 [S205C]/beta-2 [26-512]/gamma-2 [40-467] (Homo sapiens, UniProt P14867+P18507+P47870, S205C)", "T15 construct": "26-512; 40-467", "details": "25 °C"}, "[16]": {"target": "T16, Gamma-aminobutyric acid receptor subunit alpha-1 [28-456]/beta-2 [26-512]/gamma-2 [40-467,R183C] (Homo sapiens, UniProt P14867+P18507+P47870, R183C)", "T16 construct": "28-456; 26-512; 40-467", "details": "25 °C"}, "[17]": {"target": "T17, Gamma-aminobutyric acid receptor subunit alpha-1 [28-456]/beta-2 [26-512]/gamma-2 [40-467,R233C] (Homo sapiens, UniProt P14867+P18507+P47870, R233C)", "T17 construct": "28-456; 26-512; 40-467", "details": "25 °C"}, "[18]": {"target": "T18, Gamma-aminobutyric acid receptor subunit alpha-1 [G200C]/beta-2 [26-512]/gamma-2 [40-467] (Homo sapiens, UniProt P14867+P18507+P47870, G200C)", "T18 construct": "26-512; 40-467", "details": "25 °C"}, "[19]": {"target": "T19, Gamma-aminobutyric acid receptor subunit alpha-1 [F99C]/beta-2 [26-512]/gamma-2 [40-467] (Homo sapiens, UniProt P14867+P18507+P47870, F99C)", "T19 construct": "26-512; 40-467", "details": "pH 7.4; 22 °C"}, "[20]": {"target": "T20, Gamma-aminobutyric acid receptor subunit alpha-1 [V211C]/beta-2 [26-512]/gamma-2 [40-467] (Homo sapiens, UniProt P14867+P18507+P47870, V211C)", "T20 construct": "26-512; 40-467", "details": "25 °C"}, "[21]": {"target": "T21, Gamma-aminobutyric acid receptor subunit alpha-1 [G157C]/beta-2 [26-512]/gamma-2 [40-467] (Homo sapiens, UniProt P14867+P18507+P47870, G157C)", "T21 construct": "26-512; 40-467", "details": "25 °C"}, "[22]": {"target": "T22, Gamma-aminobutyric acid receptor subunit alpha-1 [28-456]/beta-2 [26-512]/gamma-2 [40-467] (Homo sapiens, UniProt P14867+P18507+P47870)", "T22 construct": "28-456; 26-512; 40-467", "details": "pH 7.4; 22 °C"}, "[23]": {"target": "T23, Gamma-aminobutyric acid receptor subunit alpha-1 [S204C]/beta-2 [26-512]/gamma-2 [40-467] (Homo sapiens, UniProt P14867+P18507+P47870, S204C)", "T23 construct": "26-512; 40-467", "details": "25 °C"}, "[24]": {"target": "T24, Gamma-aminobutyric acid receptor subunit alpha-1 [T162C]/beta-2 [26-512]/gamma-2 [40-467] (Homo sapiens, UniProt P14867+P18507+P47870, T162C)", "T24 construct": "26-512; 40-467", "details": "25 °C"}, "[25]": {"target": "T25, Gamma-aminobutyric acid receptor subunit alpha-2 [29-451]/beta-2 [26-512]/gamma-2 [40-467] (Homo sapiens, UniProt P18507+P47869+P47870)", "T25 construct": "29-451; 26-512; 40-467", "details": "pH 7.4; 22 °C"}, "[26]": {"target": "T26, Gamma-aminobutyric acid receptor subunit alpha-1 [28-456]/beta-2 [26-512]/gamma-2 [40-467,R224C] (Homo sapiens, UniProt P14867+P18507+P47870, R224C)", "T26 construct": "28-456; 26-512; 40-467", "details": "25 °C"}, "[27]": {"target": "T27, Gamma-aminobutyric acid receptor subunit alpha-3 [29-492]/beta-2 [26-512]/gamma-2 [40-467] (Homo sapiens, UniProt P18507+P34903+P47870)", "T27 construct": "29-492; 26-512; 40-467", "details": "pH 7.4; 22 °C"}, "[28]": {"target": "T28, Gamma-aminobutyric acid receptor subunit alpha-1 [28-456]/beta-2 [26-512]/gamma-2 [40-467,T165C] (Homo sapiens, UniProt P14867+P18507+P47870, T165C)", "T28 construct": "28-456; 26-512; 40-467", "details": "25 °C"}}}
{"molecule": "Cc1ccc(-c2nc3ccc(C)cn3c2CC(=O)N(C)C)cc1", "note": "[Ambien]", "values": [{"measurement": "Ki", "setting": "[1]", "value": "> 15000", "unit": "nM"}, {"measurement": "Ki", "setting": "[2]", "value": "> 15000", "unit": "nM"}]}
{"molecule": "CN1CCN(C(=O)Oc2c3[nH]ccnc-3c(=O)n2-c2ccc(Cl)cn2)CC1", "note": "[ESZ]", "values": [{"measurement": "Ki", "setting": "[3]", "value": 75.2, "unit": "nM"}, {"measurement": "Ki", "setting": "[4]", "value": 46.3, "unit": "nM"}, {"measurement": "Ki", "setting": "[5]", "value": 0.83, "unit": "nM"}, {"measurement": "Ki", "setting": "[6]", "value": 22.4, "unit": "nM"}, {"measurement": "Ki", "setting": "[7]", "value": "> 15000", "unit": "nM"}, {"measurement": "Ki", "setting": "[8]", "value": 102, "unit": "nM"}, {"measurement": "Ki", "setting": "[1]", "value": "> 15000", "unit": "nM"}, {"measurement": "Ki", "setting": "[9]", "value": 60.4, "unit": "nM"}, {"measurement": "Ki", "setting": "[10]", "value": 110, "unit": "nM"}, {"measurement": "Ki", "setting": "[11]", "value": 249, "unit": "nM"}, {"measurement": "Ki", "setting": "[2]", "value": 102, "unit": "nM"}, {"measurement": "Ki", "setting": "[12]", "value": 393, "unit": "nM"}, {"measurement": "Ki", "setting": "[13]", "value": 503, "unit": "nM"}, {"measurement": "Ki", "setting": "[14]", "value": 82.4, "unit": "nM"}, {"measurement": "Ki", "setting": "[15]", "value": 34.9, "unit": "nM"}, {"measurement": "Ki", "setting": "[16]", "value": 174, "unit": "nM"}, {"measurement": "Ki", "setting": "[17]", "value": 67, "unit": "nM"}, {"measurement": "Ki", "setting": "[18]", "value": 119, "unit": "nM"}, {"measurement": "Ki", "setting": "[19]", "value": 407, "unit": "nM"}, {"measurement": "Ki", "setting": "[20]", "value": 62.4, "unit": "nM"}, {"measurement": "Ki", "setting": "[21]", "value": 2100, "unit": "nM"}, {"measurement": "Ki", "setting": "[22]", "value": 50.1, "unit": "nM"}, {"measurement": "Ki", "setting": "[23]", "value": 57.9, "unit": "nM"}, {"measurement": "Ki", "setting": "[24]", "value": 33.8, "unit": "nM"}, {"measurement": "Ki", "setting": "[25]", "value": 114, "unit": "nM"}, {"measurement": "Ki", "setting": "[26]", "value": 70.9, "unit": "nM"}, {"measurement": "Ki", "setting": "[27]", "value": 162, "unit": "nM"}, {"measurement": "Ki", "setting": "[28]", "value": 71.9, "unit": "nM"}]}
